The values that follow are results of earlier work, collected in patent US7105170B2, “Latent human tuberculosis model, diagnostic antigens, and methods of use” (The United States of America as represented by the …, priority 2001, dated 2006).

The subject of this data set is M. tuberculosis bacilli. The settings on record: non-replicating persistent lower oxygen state (NRP2).

For the compound `Cc1ncc([N+](=O)[O-])n1CCO` [metronidazole], the “alterations in drug susceptibility” value is reported as “sensitive”.
As for `O=C(O)c1cn(C2CC2)c2cc(N3CCNCC3)c(F)cc2c1=O` [ciprofloxicin], the “alterations in drug susceptibility” value is “resistant”.
